{"source": "patent US20230398130A1", "about": "“METHODS AND COMPOSITIONS FOR DIFFERENTIATING STEM CELLS” (Massachusetts Institute of Technology, priority 2020, published 2023)", "key": {"[1]": {"test_system": "ISC-enriched organoids", "experiment": "Primary screen, 384-well 2.5-D organoid differentiation (ENR+CD, 6 days): basal lysozyme secretion (LYZ.NS)", "assay_type": "cell-based, murine", "conditions": "for Z.LYZ.NS (standard z score) / Dose.FC.LYZ.NS (log 2 fold change): primary screen; for Dose.FC.LYZ.NS (log 2 fold change): vs plate median; for Dose.FC.LYZ.NS: ENR+CD, 6 days, FC vs plate median; for Z.LYZ.NS: standard z score of FC", "from_the_text": "(§1) High-throughput screening."}, "[2]": {"test_system": "ISC-enriched organoids", "experiment": "Primary screen, 384-well 2.5-D organoid differentiation (ENR+CD, 6 days, Target Selective Inhibitor Library, vs whole-plate median): ATP (CellTiter-Glo 3D, CTG)", "conditions": "for Z.CTG (standard z score) / Dose.FC.CTG (log 2 fold change): primary screen; for Dose.FC.CTG (log 2 fold change): vs plate median; for Dose.FC.CTG: ENR+CD, 6 days, FC vs plate median; for Z.CTG: standard z score of FC"}, "[3]": {"test_system": "ISC-enriched organoids", "experiment": "Primary screen, 384-well 2.5-D organoid differentiation (ENR+CD, 6 days): carbachol-induced lysozyme secretion (LYZ.S)", "assay_type": "cell-based, murine", "conditions": "for Dose.FC.LYZ.S (log 2 fold change): primary screen, vs plate median; for Dose.FC.LYZ.S: ENR+CD, 6 days, FC vs plate median", "from_the_text": "as §1"}}, "data": [{"smiles": "CNC(=O)c1ccc2cc([C@@]3(O)CCn4cncc43)ccc2c1", "note": "[TAK-700 (Orteronel)]", "values": [{"measurement": "Z.LYZ.NS (standard z score)", "setting": "[1]; Dose 0.08 uM", "result": 1.535}, {"measurement": "Dose.FC.LYZ.NS (log 2 fold change)", "setting": "[1]; Dose 0.08 uM", "result": 0.176}, {"measurement": "Z.LYZ.NS (standard z score)", "setting": "[1]; Dose 0.40 uM", "result": 1.585}, {"measurement": "Dose.FC.LYZ.NS (log 2 fold change)", "setting": "[1]; Dose 0.40 uM", "result": 0.182}, {"measurement": "Z.LYZ.NS (standard z score)", "setting": "[1]; Dose 2.00 uM", "result": 1.058}, {"measurement": "Dose.FC.LYZ.NS (log 2 fold change)", "setting": "[1]; Dose 2.00 uM", "result": 0.121}, {"measurement": "Z.LYZ.NS (standard z score)", "setting": "[1]; Dose 10.00 uM", "result": "−0.018"}, {"measurement": "Dose.FC.LYZ.NS (log 2 fold change)", "setting": "[1]; Dose 10.00 uM", "result": "−0.002"}, {"measurement": "Z.CTG (standard z score)", "setting": "[2]; Dose 0.08 uM", "result": "−0.659"}, {"measurement": "Dose.FC.CTG (log 2 fold change)", "setting": "[2]; Dose 0.08 uM", "result": "−0.276"}, {"measurement": "Z.CTG (standard z score)", "setting": "[2]; Dose 0.40 uM", "result": "−0.056"}, {"measurement": "Dose.FC.CTG (log 2 fold change)", "setting": "[2]; Dose 0.40 uM", "result": "−0.024"}, {"measurement": "Z.CTG (standard z score)", "setting": "[2]; Dose 2.00 uM", "result": "−0.202"}, {"measurement": "Dose.FC.CTG (log 2 fold change)", "setting": "[2]; Dose 2.00 uM", "result": "−0.084"}, {"measurement": "Z.CTG (standard z score)", "setting": "[2]; Dose 10.00 uM", "result": 0.219}, {"measurement": "Dose.FC.CTG (log 2 fold change)", "setting": "[2]; Dose 10.00 uM", "result": 0.092}, {"measurement": "Dose.FC.LYZ.S (log 2 fold change)", "setting": "[3]; Dose 0.08 uM", "result": 0.113}, {"measurement": "Dose.FC.LYZ.S (log 2 fold change)", "setting": "[3]; Dose 0.40 uM", "result": 0.090}, {"measurement": "Dose.FC.LYZ.S (log 2 fold change)", "setting": "[3]; Dose 2.00 uM", "result": 0.093}, {"measurement": "Dose.FC.LYZ.S (log 2 fold change)", "setting": "[3]; Dose 10.00 uM", "result": 0.032}]}, {"smiles": "O=c1[nH]c2ccc(Cl)cc2c(N[C@@H]2CN3CCC2CC3)c1-c1nc2ccccc2[nH]1", "note": "[CHIR-124]", "values": [{"measurement": "Dose.FC.LYZ.NS", "setting": "[1]; Dose 0.08 uM", "result": "−0.155", "unit": "log 2 fold change"}, {"measurement": "Z.LYZ.NS", "setting": "[1]; Dose 0.08 uM", "result": "−1.352"}, {"measurement": "Dose.FC.LYZ.NS", "setting": "[1]; Dose 0.40 uM", "result": "−0.240", "unit": "log 2 fold change"}, {"measurement": "Z.LYZ.NS", "setting": "[1]; Dose 0.40 uM", "result": "−2.090"}, {"measurement": "Dose.FC.LYZ.NS", "setting": "[1]; Dose 2.00 uM", "result": "−0.220", "unit": "log 2 fold change"}, {"measurement": "Z.LYZ.NS", "setting": "[1]; Dose 2.00 uM", "result": "−1.916"}, {"measurement": "Dose.FC.LYZ.NS", "setting": "[1]; Dose 10.00 uM", "result": "−0.140", "unit": "log 2 fold change"}, {"measurement": "Z.LYZ.NS", "setting": "[1]; Dose 10.00 uM", "result": "−1.223"}, {"measurement": "Dose.FC.CTG", "setting": "[2]; Dose 0.08 uM", "result": "−0.256", "unit": "log 2 fold change"}, {"measurement": "Z.CTG", "setting": "[2]; Dose 0.08 uM", "result": "−0.612"}, {"measurement": "Dose.FC.CTG", "setting": "[2]; Dose 0.40 uM", "result": "−0.853", "unit": "log 2 fold change"}, {"measurement": "Z.CTG", "setting": "[2]; Dose 0.40 uM", "result": "−2.038"}, {"measurement": "Dose.FC.CTG", "setting": "[2]; Dose 2.00 uM", "result": "−0.861", "unit": "log 2 fold change"}, {"measurement": "Z.CTG", "setting": "[2]; Dose 2.00 uM", "result": "−2.057"}, {"measurement": "Dose.FC.CTG", "setting": "[2]; Dose 10.00 uM", "result": "−1.555", "unit": "log 2 fold change"}, {"measurement": "Z.CTG", "setting": "[2]; Dose 10.00 uM", "result": "−3.714"}, {"measurement": "Dose.FC.LYZ.S", "setting": "[3]; Dose 0.08 uM", "result": "−0.267", "unit": "log 2 fold change"}, {"measurement": "Dose.FC.LYZ.S", "setting": "[3]; Dose 0.40 uM", "result": "−0.339", "unit": "log 2 fold change"}, {"measurement": "Dose.FC.LYZ.S", "setting": "[3]; Dose 2.00 uM", "result": "−0.352", "unit": "log 2 fold change"}, {"measurement": "Dose.FC.LYZ.S", "setting": "[3]; Dose 10.00 uM", "result": "−0.332", "unit": "log 2 fold change"}]}, {"smiles": "COc1cc(Br)c(Nc2nc(-c3c(C)nc4ncccn34)cs2)c(Br)c1", "note": "[PTC-209]", "values": [{"measurement": "Z.LYZ.NS (standard z score)", "setting": "[1]; Dose 0.08 uM", "result": 0.294}, {"measurement": "Dose.FC.LYZ.NS (log 2 fold change)", "setting": "[1]; Dose 0.08 uM", "result": 0.034}, {"measurement": "Z.LYZ.NS (standard z score)", "setting": "[1]; Dose 0.40 uM", "result": "−0.509"}, {"measurement": "Dose.FC.LYZ.NS (log 2 fold change)", "setting": "[1]; Dose 0.40 uM", "result": "−0.058"}, {"measurement": "Z.LYZ.NS (standard z score)", "setting": "[1]; Dose 2.00 uM", "result": "−1.753"}, {"measurement": "Dose.FC.LYZ.NS (log 2 fold change)", "setting": "[1]; Dose 2.00 uM", "result": "−0.201"}, {"measurement": "Z.LYZ.NS (standard z score)", "setting": "[1]; Dose 10.00 uM", "result": "−1.975"}, {"measurement": "Dose.FC.LYZ.NS (log 2 fold change)", "setting": "[1]; Dose 10.00 uM", "result": "−0.227"}, {"measurement": "Z.CTG (standard z score)", "setting": "[2]; Dose 0.08 uM", "result": "−0.259"}, {"measurement": "Dose.FC.CTG (log 2 fold change)", "setting": "[2]; Dose 0.08 uM", "result": "−0.108"}, {"measurement": "Z.CTG (standard z score)", "setting": "[2]; Dose 0.40 uM", "result": "−0.495"}, {"measurement": "Dose.FC.CTG (log 2 fold change)", "setting": "[2]; Dose 0.40 uM", "result": "−0.207"}, {"measurement": "Z.CTG (standard z score)", "setting": "[2]; Dose 2.00 uM", "result": "−3.397"}, {"measurement": "Dose.FC.CTG (log 2 fold change)", "setting": "[2]; Dose 2.00 uM", "result": "−1.422"}, {"measurement": "Z.CTG (standard z score)", "setting": "[2]; Dose 10.00 uM", "result": "−3.708"}, {"measurement": "Dose.FC.CTG (log 2 fold change)", "setting": "[2]; Dose 10.00 uM", "result": "−1.553"}, {"measurement": "Dose.FC.LYZ.S (log 2 fold change)", "setting": "[3]; Dose 0.08 uM", "result": 0.007}, {"measurement": "Dose.FC.LYZ.S (log 2 fold change)", "setting": "[3]; Dose 0.40 uM", "result": 0.045}, {"measurement": "Dose.FC.LYZ.S (log 2 fold change)", "setting": "[3]; Dose 2.00 uM", "result": "−0.289"}, {"measurement": "Dose.FC.LYZ.S (log 2 fold change)", "setting": "[3]; Dose 10.00 uM", "result": "−0.300"}]}]}
